Patent US20100080770A1, “Hepatitis C Virus Inhibitors” (priority 2008, published 2010)

Biological target: T1, HCV NS3/4A protease complex (Hepatitis C virus genotype 1a, UniProt P27958, C1454S/C1711G)
T1 construct: recombinant HCV NS3/4A protease complex (amino acids 1027 to 1711); inferred from the pET21b vector and Ni-NTA purification; made in house; host or cells: Escherichia coli BL21 (DE3)
Assay: FRET peptide assay to monitor HCV NS3/4A proteolytic activity
Type: biochemical
Settings: not given
Excerpt: HCV NS3 protease complexes, derived from the BMS strain, H77 strain or J4L6S strain, were generated, as described below. These purified recombinant proteins were generated for use in a homogeneous assay (see below) to provide an indication of how effective compounds of the present disclosure would be in inhibiting HCV NS3 proteolytic activity.
The H77 and J4L6S strains were used for production of recombinant NS3/4A protease complexes. DNA encoding the recombinant HCV NS3/4A protease complex (amino acids 1027 to 1711) for these strains was manipulated as described by P. Gallinari et al. (see Gallinari P, Paolini C, Brennan D, Nardi C, Steinkuhler C, De Francesco R. Biochemistry. 38(17):5620-32, (1999)). Briefly, a three-lysine solubilizing tail was added at the 3′-end of the NS4A coding region. The cysteine in the P1 position of the NS4A-NS4B cleavage site (amino acid 1711) was changed to a glycine to avoid the proteolytic cleavage of the lysine tag. Furthermore, a cysteine to serine mutation was introduced by PCR at amino acid position 1454 to prevent the autolytic cleavage in the NS3 helicase domain. The variant DNA fragment was cloned in the pET21b bacterial expression vector (Novagen) and the NS3/4A complex was expressed in Escherichia coli strain BL21 (DE3) (Invitrogen) following the protocol described by P. Gallinari et al. (see Gallinari P, Brennan D, Nardi C, Brunetti M, Tomei L, Steinkuhler C, De Francesco R., J Virol. 72(8):6758-69 (1998)) with modifications. Briefly, the NS3/4A protease complex expression was induced with 0.5 millimolar (mM) Isopropyl β-D-1-thiogalactopyranoside (IPTG) for 22 hours (h) at 20° C. A typical fermentation (1 Liter (L)) yielded approximately 10 grams (g) of wet cell paste. The cells were resuspended in lysis buffer (10 mL/g) consisting of 25 mM N-(2-Hydroxyethyl)Piperazine-N′-(2-Ethane Sulfonic acid) (HEPES), pH 7.5, 20% glycerol, 500 mM Sodium Chloride (NaCl), 0.5% Triton X-100, 1 microgram/milliliter (“μg/mL”) lysozyme, 5 mM Magnesium Chloride (MgCl2), 1 μg/ml DnaseI, 5 mM β-Mercaptoethanol (βME), Protease inhibitor-Ethylenediamine Tetraacetic acid (EDTA) free (Roche), homogenized and incubated for 20 minutes (min) at 4° C. The homogenate was sonicated and clarified by ultra-centrifugation at 235000 g for 1 hour (h) at 4° C. Imidazole was added to the supernatant to a final concentration of 15 mM and the pH adjusted to 8.0. The crude protein extract was loaded on a Nickel-Nitrilotriacetic acid (Ni-NTA) column pre-equilibrated with buffer B (25 mM HEPES, pH 8.0, 20% glycerol, 500 mM NaCl, 0.5% Triton X-100, 15 mM imidazole, 5 mM βME). The sample was loaded at a flow rate of 1 ml/min. The column was washed with 15 column volumes of buffer C (same as buffer B except with 0.2% Triton X-100). The protein was eluted with 5 column volumes of buffer D (same as buffer C except with 200 mM Imidazole).
NS3/4A protease complex-containing fractions were pooled and loaded on a desalting column Superdex-S200 pre-equilibrated with buffer D (25mM HEPES, pH 7.5, 20% glycerol, 300 mM NaCl, 0.2% Triton X-100, 10 mM βME). Sample was loaded at a flow rate of 1 mL/min. NS3/4A protease complex-containing fractions were pooled and concentrated to approximately 0.5 mg/ml. The purity of the NS3/4A protease complexes, derived from the BMS, H77 and J4L6S strains, were judged to be greater than 90% by SDS-PAGE and mass spectrometry analyses. The enzyme was stored at −80° C., thawed on ice and diluted prior to use in assay buffer.
The purpose of this in vitro assay was to measure the inhibition of HCV NS3 protease complexes, derived from the BMS strain, H77 strain or J4L6S strain, as described above, by compounds of the present disclosure. This assay provides an indication of how effective compounds of the present disclosure would be in inhibiting HCV NS3 proteolytic activity.
In order to monitor HCV NS3/4A protease activity, an NS3/4A peptide substrate was used. […]

T1 sequence (P27958 1027-1711 C1454S/C1711G, one chain of several): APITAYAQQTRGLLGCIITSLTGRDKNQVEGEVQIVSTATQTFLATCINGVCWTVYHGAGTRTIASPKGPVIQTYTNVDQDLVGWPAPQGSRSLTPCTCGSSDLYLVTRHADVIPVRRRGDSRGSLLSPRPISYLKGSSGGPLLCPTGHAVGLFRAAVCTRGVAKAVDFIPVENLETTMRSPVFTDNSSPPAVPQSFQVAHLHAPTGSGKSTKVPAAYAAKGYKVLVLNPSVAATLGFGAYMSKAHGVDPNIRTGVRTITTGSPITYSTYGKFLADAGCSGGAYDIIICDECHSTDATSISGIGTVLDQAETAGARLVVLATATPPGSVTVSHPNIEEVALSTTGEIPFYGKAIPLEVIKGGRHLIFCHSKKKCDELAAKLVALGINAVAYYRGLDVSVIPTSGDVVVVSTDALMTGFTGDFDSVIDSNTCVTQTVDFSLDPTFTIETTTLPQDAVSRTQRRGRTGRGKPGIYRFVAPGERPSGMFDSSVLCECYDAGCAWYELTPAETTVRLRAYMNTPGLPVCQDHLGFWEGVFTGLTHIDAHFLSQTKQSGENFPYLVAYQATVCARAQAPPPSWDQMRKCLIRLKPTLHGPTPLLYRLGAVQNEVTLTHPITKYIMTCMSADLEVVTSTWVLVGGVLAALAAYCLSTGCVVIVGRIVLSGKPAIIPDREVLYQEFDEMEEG

| SMILES | IC50 [nM] |
| --- | --- |
| CO[C@@]12C[C@@H](C(=O)N[C@]3(C(=O)NS(=O)(=O)C4CC4)C[C@H]3C3CC3)N(C1)C(=O)[C@H](C(C)(C)C)NC(=O)OCCCCCCc1ccc3ccc2cc3c1 [Example 31] | 1 to 10 |

Same assay, conditions: HCV NS3/4A protease complex; strain not stated; class symbols; read-out: IC50

| SMILES | IC50 [nM] |
| --- | --- |
| COc1cc2ccc3cc2cc1CCCC(C)(C)CCOC(=O)N[C@@H](C1CCOCC1)C(=O)N1C[C@@]3(OC)C[C@H]1C(=O)N[C@]1(C(=O)NS(=O)(=O)C2CC2)C[C@H]1C1CC1 [Example 39] | 1 to 10 |
| COc1cc2ccc3cc2cc1CCCC(C)(C)CCOC(=O)N[C@@H](C(C)(C)C)C(=O)N1C[C@@]3(OC(=O)N(C)C)C[C@H]1C(=O)N[C@]1(C(=O)NS(=O)(=O)C2CC2)C[C@H]1C1CC1 [Example 27] | 1 to 10 |
| C=C[C@@H]1C[C@]1(NC(=O)[C@@H]1C[C@]2(OC)CN1C(=O)[C@H](C(C)(C)C)NC(=O)OCCCCCCCCc1cc3cc2ccc3cc1OC)C(=O)NS(=O)(=O)C1CC1 [Example 23] | 1 to 10 |
| COc1cc2ccc3cc2cc1CCCC(C)(C)CCOC(=O)N[C@@H](C(C)C)C(=O)N1C[C@@]3(OC)C[C@H]1C(=O)N[C@]1(C(=O)NS(=O)(=O)C2CC2)C[C@H]1C1CC1 [Example 38] | 1 to 10 |
| C=C[C@@H]1C[C@]1(NC(=O)[C@@H]1C[C@]2(OC)CN1C(=O)[C@H](C(C)(C)C)NC(=O)OCCCCCCc1cc2cc2ccccc12)C(=O)NS(=O)(=O)C1CC1 [Example 24] | 1 to 10 |
| COc1cc2ccc3cc2cc1CCCCCCCC(=O)N[C@@H](C(C)(C)C)C(=O)N1C[C@@]3(OC)C[C@H]1C(=O)N[C@]1(C(=O)NS(=O)(=O)C2CC2)C[C@H]1C1CC1 [Example 41] | 1 to 10 |
| C=C[C@@H]1C[C@]1(NC(=O)[C@@H]1C[C@]2(OC)CN1C(=O)[C@H](C(C)(C)C)NC(=O)OCCCCCCc1cc3cc2ccc3cc1N(C)C)C(=O)NS(=O)(=O)C1CC1 [Example 29] | 1 to 10 |
| C=C[C@@H]1C[C@]1(NC(=O)[C@@H]1C[C@]2(OC)CN1C(=O)[C@H](C(C)(C)C)NC(=O)OCCCCCCCc1cc3cc2ccc3cc1OC)C(=O)NS(=O)(=O)C1CC1 [Example 20] | 11 to 12 |
| COc1cc2ccc3cc2cc1CCCCOC(=O)N[C@@H](C(C)(C)C)C(=O)N1C[C@@]3(OC)C[C@H]1C(=O)N[C@]1(C(=O)NS(=O)(=O)C2CC2)C[C@H]1C1CC1 [Example 2] | 11 to 12 |
| COc1cc2ccc3cc2cc1CCCCCCCOC(=O)N[C@@H](C(C)(C)C)C(=O)N1C[C@@]3(OC)C[C@H]1C(=O)N[C@]1(C(=O)NS(=O)(=O)C2CC2)C[C@H]1C1CC1 [Example 21] | 21 to 3200 |
| COc1cc2ccc3cc2cc1CCCCCCCCOC(=O)N[C@@H](C(C)(C)C)C(=O)N1C[C@@]3(OC)C[C@H]1C(=O)N[C@]1(C(=O)NS(=O)(=O)C2CC2)C[C@H]1C1CC1 [Example 22] | 1 to 10 |
| COc1ccc2ccc3cc2c1CCCCOC(=O)N[C@@H](C(C)(C)C)C(=O)N1C[C@@]3(OC)C[C@H]1C(=O)N[C@]1(C(=O)NS(=O)(=O)C2CC2)C[C@H]1C1CC1 [Example 37] | 21 to 3200 |
| COCO[C@@]12C[C@@H](C(=O)N[C@]3(C(=O)NS(=O)(=O)C4CC4)C[C@H]3C3CC3)N(C1)C(=O)[C@H](C(C)(C)C)NC(=O)OCCC(C)(C)CCCc1cc3cc2ccc3cc1OC [Example 28] | 1 to 10 |
| COc1c2cc3cc(ccc3c1Br)[C@]1(OC)C[C@@H](C(=O)N[C@]3(C(=O)NS(=O)(=O)C4CC4)C[C@H]3C3CC3)N(C1)C(=O)[C@H](C(C)(C)C)NC(=O)OCCC(C)(C)CCC2 [Example 33] | 11 to 12 |
| COc1cc2ccc3cc2cc1CCCCCCOC(=O)N[C@@H](C(C)(C)C)C(=O)N1C[C@@]3(O)C[C@H]1C(=O)N[C@]1(C(=O)NS(=O)(=O)C2CC2)C[C@H]1C1CC1 [Example 26] | 1 to 10 |
| CO[C@@]12C[C@@H](C(=O)N[C@]3(C(=O)NS(=O)(=O)C4CC4)C[C@H]3C3CC3)N(C1)C(=O)[C@H](C(C)(C)C)NC(=O)OCCCCCCc1cc3cc2ccc3cc1N(C)C [Example 30] | 1 to 10 |
| C=C[C@@H]1C[C@]1(NC(=O)[C@@H]1C[C@]2(OC)CN1C(=O)[C@H](C(C)(C)C)NC(=O)OCCCCCc1cc3cc2ccc3cc1OC)C(=O)NS(=O)(=O)C1CC1 [Example 5] | 1 to 10 |
| COc1cc2ccc3cc2cc1CCCC(C)(C)CCNC(=O)N[C@@H](C(C)(C)C)C(=O)N1C[C@@]3(OC)C[C@H]1C(=O)N[C@]1(C(=O)NS(=O)(=O)C2CC2)C[C@H]1C1CC1 [Example 40] | 1 to 10 |
| COc1ccc2ccc3cc2c1CCCCCOC(=O)N[C@@H](C(C)(C)C)C(=O)N1C[C@@]3(OC)C[C@H]1C(=O)N[C@]1(C(=O)NS(=O)(=O)C2CC2)C[C@H]1C1CC1 [Example 36] | 21 to 3200 |
| C=C[C@@H]1C[C@]1(NC(=O)[C@@H]1C[C@]2(OC)CN1C(=O)[C@H](C(C)(C)C)NC(=O)OCCCCc1cc3cc2ccc3cc1OC)C(=O)NS(=O)(=O)C1CC1 [Example 3] | 1 to 10 |
| COc1cc2ccc3cc2cc1CCCCCOC(=O)N[C@@H](C(C)(C)C)C(=O)N1C[C@@]3(OC)C[C@H]1C(=O)N[C@]1(C(=O)NS(=O)(=O)C2CC2)C[C@H]1C1CC1 [Example 6] | 1 to 10 |

Same assay, conditions: HCV NS3/4A protease complex; strain not stated; numeric values; read-out: IC50

| SMILES | IC50 [nM] |
| --- | --- |
| COc1c2cc3cc(ccc3c1Cl)[C@]1(OC)C[C@@H](C(=O)N[C@]3(C(=O)NS(=O)(=O)C4CC4)C[C@H]3C3CC3)N(C1)C(=O)[C@H](C(C)(C)C)NC(=O)OCCC(C)(C)CCC2 [Example 32] | 25 |
| COc1ccc2ccc3cc2c1CCCCCCOC(=O)N[C@@H](C(C)(C)C)C(=O)N1C[C@@]3(OC)C[C@H]1C(=O)N[C@]1(C(=O)NS(=O)(=O)C2CC2)C[C@H]1C1CC1 [Example 35] | 413 |
| C=C[C@@H]1C[C@]1(NC(=O)[C@@H]1C[C@]2(OC)CN1C(=O)[C@H](C(C)(C)C)NC(=O)OCCCCCc1cc2cc2ccccc12)C(=O)NS(=O)(=O)C1CC1 [Example 25] | 240 |
| COc1cc2ccc3cc2cc1CCCC1(CCOC(=O)N[C@@H](C(C)(C)C)C(=O)N2C[C@@]3(OC)C[C@H]2C(=O)N[C@]2(C(=O)NS(=O)(=O)C3CC3)C[C@H]2C2CC2)CC1 [Example 34] | 1 |
